Data as given in paper PMC4516653 (European journal of pharmaceutical sciences : official …, 2015).
“And” between values parts separate entries of the source, which are not always exact repeats. Equal values may be shown once. Read-outs that look alike come from different tables or passages of the source.

Tests used:
CYP 1A2 = target: T1, CYP 1A2 (Homo sapiens, UniProt P05177); assay: CYP inhibition assay in human liver microsomes; format: in vitro ADME
T1 sequence (P05177 1-516): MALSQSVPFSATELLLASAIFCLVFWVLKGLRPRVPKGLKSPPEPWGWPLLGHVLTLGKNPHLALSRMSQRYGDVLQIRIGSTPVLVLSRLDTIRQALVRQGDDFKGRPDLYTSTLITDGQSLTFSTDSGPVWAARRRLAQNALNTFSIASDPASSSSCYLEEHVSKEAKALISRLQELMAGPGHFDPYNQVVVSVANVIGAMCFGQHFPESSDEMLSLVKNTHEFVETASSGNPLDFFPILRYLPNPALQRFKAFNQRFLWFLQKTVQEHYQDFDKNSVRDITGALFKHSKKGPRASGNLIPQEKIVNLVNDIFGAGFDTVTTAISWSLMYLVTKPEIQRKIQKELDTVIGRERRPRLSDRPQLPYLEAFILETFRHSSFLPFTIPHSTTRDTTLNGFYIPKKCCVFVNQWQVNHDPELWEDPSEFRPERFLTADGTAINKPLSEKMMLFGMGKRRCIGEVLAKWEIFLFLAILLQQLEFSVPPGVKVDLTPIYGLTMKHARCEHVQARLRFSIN

CYP 2A6 = target: T2, CYP 2A6 (Homo sapiens, UniProt P11509); assay: CYP inhibition assay in human liver microsomes; format: in vitro ADME
T2 sequence (P11509 1-494): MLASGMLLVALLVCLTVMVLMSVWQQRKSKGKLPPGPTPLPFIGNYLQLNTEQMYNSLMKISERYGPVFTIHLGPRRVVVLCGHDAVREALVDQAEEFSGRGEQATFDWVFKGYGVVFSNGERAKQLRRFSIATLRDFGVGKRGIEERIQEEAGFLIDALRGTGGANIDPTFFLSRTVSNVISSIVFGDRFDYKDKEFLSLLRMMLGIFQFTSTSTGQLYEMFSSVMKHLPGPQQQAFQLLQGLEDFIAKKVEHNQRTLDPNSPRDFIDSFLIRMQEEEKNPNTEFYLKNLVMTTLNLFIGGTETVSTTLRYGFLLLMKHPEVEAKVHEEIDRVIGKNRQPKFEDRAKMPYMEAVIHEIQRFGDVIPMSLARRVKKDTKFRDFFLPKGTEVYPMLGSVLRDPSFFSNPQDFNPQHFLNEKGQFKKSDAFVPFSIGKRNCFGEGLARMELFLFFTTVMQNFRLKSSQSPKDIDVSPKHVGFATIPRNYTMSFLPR

CYP 2B6 = target: T3, CYP 2B6 (Homo sapiens, UniProt P20813); assay: CYP inhibition assay in human liver microsomes; format: in vitro ADME; settings: IC50 CYP 2B6, human liver microsomes; duplicate incubations, both values printed
T3 sequence (P20813 1-491): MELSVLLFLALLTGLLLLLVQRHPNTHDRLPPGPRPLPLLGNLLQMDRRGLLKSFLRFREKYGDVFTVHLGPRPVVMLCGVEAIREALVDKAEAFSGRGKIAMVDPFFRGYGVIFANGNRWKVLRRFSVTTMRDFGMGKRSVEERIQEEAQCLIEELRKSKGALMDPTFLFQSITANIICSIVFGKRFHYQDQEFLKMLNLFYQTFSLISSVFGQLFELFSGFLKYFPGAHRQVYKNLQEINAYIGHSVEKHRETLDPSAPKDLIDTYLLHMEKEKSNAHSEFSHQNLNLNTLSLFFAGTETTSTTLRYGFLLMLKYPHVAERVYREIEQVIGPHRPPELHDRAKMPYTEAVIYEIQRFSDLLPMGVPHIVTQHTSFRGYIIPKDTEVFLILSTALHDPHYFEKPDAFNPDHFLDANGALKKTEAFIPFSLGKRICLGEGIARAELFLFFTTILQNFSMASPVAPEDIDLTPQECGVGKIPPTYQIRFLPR

CYP 2C8 = target: T4, CYP 2C8 (Homo sapiens, UniProt P10632); assay: CYP inhibition assay in human liver microsomes; format: in vitro ADME
T4 sequence (P10632 1-490): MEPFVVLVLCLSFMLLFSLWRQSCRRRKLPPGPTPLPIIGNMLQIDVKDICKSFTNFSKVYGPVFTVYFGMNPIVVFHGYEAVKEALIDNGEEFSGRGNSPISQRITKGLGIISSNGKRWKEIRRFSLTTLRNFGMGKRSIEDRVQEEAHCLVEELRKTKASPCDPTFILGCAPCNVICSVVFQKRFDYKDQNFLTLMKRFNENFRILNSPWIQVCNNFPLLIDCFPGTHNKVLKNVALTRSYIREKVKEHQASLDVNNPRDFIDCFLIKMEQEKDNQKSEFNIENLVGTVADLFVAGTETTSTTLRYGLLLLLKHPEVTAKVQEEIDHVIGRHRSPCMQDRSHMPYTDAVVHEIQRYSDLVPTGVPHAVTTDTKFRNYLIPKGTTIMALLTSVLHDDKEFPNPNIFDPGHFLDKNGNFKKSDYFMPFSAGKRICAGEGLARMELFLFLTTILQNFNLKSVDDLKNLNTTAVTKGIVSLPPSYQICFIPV

CYP 2C9 = CYP 2C9 (Homo sapiens, UniProt P11712); assay: CYP inhibition assay in human liver microsomes; format: in vitro ADME
CYP 2C9, sequence (P11712 whole entry): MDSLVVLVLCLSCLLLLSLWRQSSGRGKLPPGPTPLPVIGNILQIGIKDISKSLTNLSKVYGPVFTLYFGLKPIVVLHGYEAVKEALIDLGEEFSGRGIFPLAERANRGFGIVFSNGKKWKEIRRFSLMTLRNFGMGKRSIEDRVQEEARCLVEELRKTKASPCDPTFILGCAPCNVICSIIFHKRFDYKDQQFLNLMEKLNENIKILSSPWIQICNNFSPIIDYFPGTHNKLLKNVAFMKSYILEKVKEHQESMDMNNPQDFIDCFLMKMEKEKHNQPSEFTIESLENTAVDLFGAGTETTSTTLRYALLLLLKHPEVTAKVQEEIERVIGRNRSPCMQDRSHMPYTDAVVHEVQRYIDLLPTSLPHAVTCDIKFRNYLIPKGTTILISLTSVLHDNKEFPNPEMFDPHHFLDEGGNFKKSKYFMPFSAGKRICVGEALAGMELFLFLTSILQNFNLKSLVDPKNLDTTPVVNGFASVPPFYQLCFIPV

CYP 2D6 = CYP 2D6 (Homo sapiens, UniProt P10635); assay: CYP inhibition assay in human liver microsomes; format: in vitro ADME
CYP 2D6, sequence (P10635 whole entry): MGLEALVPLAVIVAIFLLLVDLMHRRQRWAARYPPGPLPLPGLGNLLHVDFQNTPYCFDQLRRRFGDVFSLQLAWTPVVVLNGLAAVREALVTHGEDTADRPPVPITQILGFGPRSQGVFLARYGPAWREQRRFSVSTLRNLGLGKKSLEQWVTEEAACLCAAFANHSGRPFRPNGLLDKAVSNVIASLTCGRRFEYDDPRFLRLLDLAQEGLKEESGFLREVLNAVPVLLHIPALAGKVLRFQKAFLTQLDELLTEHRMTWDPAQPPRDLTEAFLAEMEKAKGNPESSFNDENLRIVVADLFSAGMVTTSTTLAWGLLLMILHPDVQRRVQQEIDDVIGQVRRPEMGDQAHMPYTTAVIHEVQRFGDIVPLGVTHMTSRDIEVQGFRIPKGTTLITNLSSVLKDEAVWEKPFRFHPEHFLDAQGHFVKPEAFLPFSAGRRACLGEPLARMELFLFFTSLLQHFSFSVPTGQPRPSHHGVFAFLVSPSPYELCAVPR

CYP 2E1 = CYP 2E1 (Homo sapiens, UniProt P05181); assay: CYP inhibition assay in human liver microsomes; format: in vitro ADME
CYP 2E1, sequence (P05181 whole entry): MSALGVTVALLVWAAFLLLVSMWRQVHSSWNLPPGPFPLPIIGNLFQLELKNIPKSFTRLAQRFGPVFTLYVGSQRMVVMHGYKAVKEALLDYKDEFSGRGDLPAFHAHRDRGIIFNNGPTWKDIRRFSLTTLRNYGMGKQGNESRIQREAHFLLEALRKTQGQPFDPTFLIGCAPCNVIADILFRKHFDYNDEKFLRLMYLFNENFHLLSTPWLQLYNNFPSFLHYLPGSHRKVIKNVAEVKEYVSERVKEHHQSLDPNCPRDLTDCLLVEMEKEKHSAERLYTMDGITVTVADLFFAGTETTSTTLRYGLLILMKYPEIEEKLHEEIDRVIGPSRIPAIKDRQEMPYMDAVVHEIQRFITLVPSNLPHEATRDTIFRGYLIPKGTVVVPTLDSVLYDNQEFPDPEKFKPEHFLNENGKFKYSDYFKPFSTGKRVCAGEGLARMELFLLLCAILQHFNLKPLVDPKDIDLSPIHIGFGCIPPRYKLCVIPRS

CYP3A4 = CYP3A4 (Homo sapiens, UniProt P08684); assay: CYP inhibition assay in human liver microsomes; format: in vitro ADME; settings: mean value given in text, HLM
CYP3A4, sequence (P08684 2-503 limits assumed): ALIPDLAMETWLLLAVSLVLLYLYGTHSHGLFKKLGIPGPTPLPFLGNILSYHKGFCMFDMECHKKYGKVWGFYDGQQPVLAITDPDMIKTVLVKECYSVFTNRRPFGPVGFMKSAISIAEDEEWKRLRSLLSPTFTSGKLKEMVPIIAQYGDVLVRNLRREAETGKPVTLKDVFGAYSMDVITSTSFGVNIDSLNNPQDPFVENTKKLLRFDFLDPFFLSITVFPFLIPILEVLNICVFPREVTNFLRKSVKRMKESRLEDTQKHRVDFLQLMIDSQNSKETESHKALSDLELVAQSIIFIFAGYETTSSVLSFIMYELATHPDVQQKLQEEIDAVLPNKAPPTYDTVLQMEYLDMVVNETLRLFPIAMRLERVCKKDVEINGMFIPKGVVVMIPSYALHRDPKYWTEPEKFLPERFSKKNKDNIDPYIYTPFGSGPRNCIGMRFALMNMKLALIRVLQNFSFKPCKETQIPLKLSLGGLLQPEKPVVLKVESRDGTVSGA

[1] = Single-dose oral PK screening of Nos with dietary ingredients; format: in vivo, male CD-1 mice
Repeated-dose = format: in vivo, male CD-1 mice; settings: for AUC(0-t): AUClast
[2] = Microsomal stability assay of Nos; format: in vitro ADME, CD-1 mouse; settings: Noscapine 10 μM alone; n=2
[3] = Microsomal stability assay of Nos; format: in vitro ADME, Sprague-Dawley rat; settings: Noscapine 10 μM alone; n=2
[4] = Microsomal stability assay of Nos; format: in vitro ADME, Beagle dog; settings: Noscapine 10 μM alone; n=2
[5] = Microsomal stability assay of Nos; format: in vitro ADME, human; settings: Noscapine 10 μM alone; n=2
[6] = Clinical chemistry parameters after 7 days oral dosing; format: in vivo, mice; settings: hepatic and renal serum markers
[7] = cited from earlier work
UGT = assay: In vitro UGT inhibition in mouse liver; settings: UGT inhibition experiments, MLM and MIM, Figure 7
[8] = IC50 CYP 1A2, human liver microsomes, duplicate incubations, both values printed
[9] = IC50 CYP 2C8, human liver microsomes, duplicate incubations, both values printed
[10] = IC50 CYP 2C9, human liver microsomes, duplicate incubations, both values printed
[11] = male, CD-1, mouse, plasma, po, 50 mg/kg

For `COc1cc(CNC(=O)CCCC/C=C/C(C)C)ccc1O` [Cap, capsaicin], the IC50 (CYP 1A2; [8]) was 3.1 µM and 3.5 µM, the IC50 (CYP 1A2; mean IC50 CYP1A2, mean value given in text, HLM) was 3.3 µM and the IC50 (CYP 2A6) was over 100 µM. The IC50 (CYP 2B6) was 26 µM and 24 µM, the IC50 (CYP 2C8; [9]) was 6.3 µM and 5.9 µM and the IC50 (CYP 2C8; mean IC50 CYP2C8, mean value given in text, HLM) was 6.1 µM. It also gave an IC50 (CYP 2C9) of 3.7 µM, an IC50 (CYP 2C9; [10]) of 4.5 µM and an IC50 (CYP 2C9; mean IC50 CYP2C9, mean value given in text, HLM) of 4.1 µM. It also gave an IC50 (CYP 2D6) of 68 µM, an IC50 (CYP 2E1) of over 100 µM and an IC50 (CYP3A4; mean IC50 CYP3A4, midazolam as substrate) of 16 µM. The IC50 (CYP3A4; mean IC50 CYP3A4, testosterone as substrate) was 9.7 µM.
For `COc1ccc2c(c1OC)C(=O)O[C@@H]2[C@H]1c2c(cc3c(c2OC)OCO3)CCN1C` [Nos, Noscapine], the AUC(0-t) [1, 11] was 1920 ng·h/mL, the Tmax [1, 11] was 4.8 min and the half-life [1, 11] was under 60 min. It also gave an AUClast (Repeated-dose; Day 1, noscapine, oral gavage Nos 50 mg/kg bw, Cap/Pip 5 mg/kg bw, CD-1 mice) of 1023.76 ng·h/mL, a Cmax (Repeated-dose; Day 1, noscapine, oral gavage Nos 50 mg/kg bw, Cap/Pip 5 mg/kg bw, CD-1 mice, mean ± SD) of 3087.37 ± 1232.27 ng/mL and an AUClast (Repeated-dose; Day 7, noscapine, daily oral gavage Nos 50 mg/kg bw, Cap/Pip 5 mg/kg bw, CD-1 mice) of 507.74 ng·h/mL. For the same molecule, the Cmax (Repeated-dose; Day 7, noscapine, daily oral gavage Nos 50 mg/kg bw, Cap/Pip 5 mg/kg bw, CD-1 mice, mean ± SD) was 684.04 ± 31.77 ng/mL, the Tmax at 1 day (Repeated-dose; [11]) was 10.2 min and the Tmax at 7 days (Repeated-dose; [11]) was 15 min. The AUC(0-t) (Repeated-dose; male, CD-1, mouse, plasma, po, 50 mg/kg, Day 1, noscapine, oral gavage Nos 50 mg/kg bw, Cap/Pip 5 mg/kg bw, CD-1 mice) was 1020 ng·h/mL, the AUC(0-t) (Repeated-dose; male, CD-1, mouse, plasma, po, 50 mg/kg, Day 7, noscapine, daily oral gavage Nos 50 mg/kg bw, Cap/Pip 5 mg/kg bw, CD-1 mice) was 508 ng·h/mL and the Cmax at 1 day (Repeated-dose; male, CD-1, mouse, plasma, po, 50 mg/kg, Cmax, Day 1, noscapine, oral gavage Nos 50 mg/kg bw, Cap/Pip 5 mg/kg bw, CD-1 mice, mean ± SD) was 3090 ng/mL. For the same molecule, the Cmax at 7 days (Repeated-dose; male, CD-1, mouse, plasma, po, 50 mg/kg, Cmax, Day 7, noscapine, daily oral gavage Nos 50 mg/kg bw, Cap/Pip 5 mg/kg bw, CD-1 mice, mean ± SD) was 684 ng/mL, the “decrease in exposure of Nos on day 7 compared to day 1” value (Repeated-dose; repeated oral dosing for seven days) was “half” and the IC50 (CYP 1A2; [8]) was over 100 µM. For the same molecule, the IC50 (CYP 2A6) was over 100 µM, the IC50 (CYP 2B6) was over 100 µM and the IC50 (CYP 2C8; [9]) was 10 µM and 8.4 µM. The IC50 (CYP 2C9; [10]) was 18 µM and 24 µM, the IC50 (CYP 2D6) was over 100 µM and the IC50 (CYP 2E1) was over 100 µM. For the same molecule, the “Intrinsic Clearance MLM” value [2] was 6.4 mL/min/g liver, the “Intrinsic Clearance RLM” value [3] was 4.0 mL/min/g liver and the “Intrinsic Clearance DLM” value [4] was 1.9 mL/min/g liver. The “Intrinsic Clearance HLM” value [5] was 1.8 mL/min/g liver, the “clinical chemistry parameters vs vehicle-treated mice” value [6] was “did not affect” and the bioavailability ([7]; mice, ref Aneja et al., 2007) was “around 32%”. For the same molecule, the Oral bioavailability ([7]; mouse, reported, no reference given) was 30% and the half-life ([7]; ref Aneja et al., 2007) was under 120 min.
In the case of `O=C(/C=C/C=C/c1ccc2c(c1)OCO2)N1CCCCC1` [Pip, piperine], the IC50 (CYP 1A2; [8]) is reported as 35 µM and 38 µM, the IC50 (CYP 2A6) is reported as over 100 µM and the IC50 (CYP 2B6) is reported as 87 µM and 90 µM. The IC50 (CYP 2C8; [9]) was 84 µM and 78 µM, the IC50 (CYP 2C9) was 54 µM and the IC50 (CYP 2D6) was over 100 µM. For the same molecule, the IC50 (CYP 2E1) was over 100 µM and the “inhibitory effect on the rate of metabolism of Nos” value (UGT) was “did not reveal significant inhibitory effects”.
With `C=CCc1ccc(O)c(OC)c1` [Eu, eugenol] the “Tmax of Nos” value ([1]; Nos alone or co-dosed with the named dietary agent, single oral dose) was “remained unaffected”.
